System: rats of a collagen-induced arthritis model
Assay: Suppression of both-hindlimb edema in rats of a collagen-induced arthritis model
Format: in vivo, rat
Settings: 30 days after initial sensitization, pyridazinone 30 mg/kg twice daily, methotrexate 0.05 mg/kg once daily
Experimental: The effect on suppressing edema of both hindlimbs by 2-benzyl-5-(4-chlorophenyl)-6-4-(methylthio)phenyl]-2H-pyridazin-3-one (synthesized through the aforementioned method) and methotrexate were determined both in the cases of combined administration and solo administration through the following procedure. For the experiment-rats of a collagen-induced arthritis model were used. (FDA, CBER, CDER, CDRH: Guidance for industry—Clinical development programs for drugs devices and biological products for the treatment of rheumatoid arthritis (RA)-(1999)). Lewis female rats (LFW/Crj) (obtained from Charles River Laboratories Japan, Inc.) were employed as test animals.
For each 8-week-old LEW/Crj rat, the volume of a portion from the ankle to the toe tip of each hindlimb was measured by means of a plethysmometer for small animals (TK-101CMP, product of Unicom) and the total volume was employed as a volume of the hindlimbs (hereinafter referred to as both-hindlimb volume) at the start of the test (hereinafter referred to as Pre value). By use of the Pre value as an index, the rats were divided into groups by one-parameter-based block randomization so that the values in the groups were averaged out.
The collagen emulsion for sensitization employed for inducing arthritis in rats was prepared by homogenizing a 0.3% Type II collagen liquid (product of Collagen Research Center), adjuvant peptide (product of Peptide Institute, Inc.), and adjuvant incomplete Freund (product of DIFCO) by means of a Handy Micro Homogenizer (product of Microtec Nition) under cooling with ice. The thus-prepared emulsion was intracutaneously injected to 10 sites in the back of each rat at 0.1 mL/site, to thereby initially sensitize the rat. Seven days after initial sensitization the same emulsion (0.12 mL) was intracutaneously injected to the tail head of the rat for booster sensitization
Administration of medicines was carried out on the day after initial sensitizaton to day 29. To the 2-benzyl-5-(4-chlorophenyl)-68 4-(methylthio)phenyl]-2H-pyridazin-3-one solo administration group, the medicine was orally administered twice; in the morning (9:00 to 11:00) and in the evening (15:30 to 17:30) at a dose of 30 mg/kg. […]
Thirty days after initial sensitization, both-hindlimb volume was measured. Volume of both-hindlimb edema was calculated by subtracting the Pre value from the thus-measured value.
Table 1 and FIG. 1 show both-hindlimb edema volume of rats which was measured 30 days after initial sensitization where the rats were divided into the 2-benzyl-5-(4-chlorophenyl)-6-[4-(methylthio)phenyl]-2H-pyridazin-3-one solo administration group, the methotrexate solo administration group, and the combined administration group. […]

SMILES: CSc1ccc(-c2nn(Cc3ccccc3)c(=O)cc2-c2ccc(Cl)cc2)cc1 [2-benzyl-5-(4-chlorophenyl)-6-[4-(methylthio)phenyl]-2H-pyridazin-3-one]
- Both-hindlimb edema volume (oral administration from day after sensitization to day 29, average of seven rats ± standard error): 1.04 ± 0.32 mL
- Edema suppression effect (in words) (oral): did not result in potent edema suppression effects
- Relative index (average edema volume of administration group / control group) (oral): 0.66
- Percent edema suppression (vs control group, oral): 34%
